Data as given in US20150065494A1, “AMINOSTYRYLBENZOFURAN DERIVATIVES AS INHIBITORS AGAINST BETA-AMYLOID FIBRIL FORMATION, AND PHARMACEUTICAL COMPOSITION COMPRISING SAME” (KOREA INSTITUTE OF SCIENCE AND TECHNOLOGY, priority 2012, published 2015).
Structures can show the parent of a compound that is named as a salt.

biological target: T1, beta-amyloid 42 (Aβ42) (Homo sapiens, UniProt P05067); assay: Inhibitory effect on the formation of beta-amyloid fibrils in vitro (ThT fluorescence assay); type: biochemical; conditions: 10 μM
T1 construct: Beta-amyloid 42 (Aβ42) was dissolved in dimethylsulfoxide (DMSO) to form a 250 mM Aβ42 stock solution
Experimental: Beta-amyloid 42 (Aβ42) was dissolved in dimethylsulfoxide (DMSO) to form a […] Aβ42 stock solution. In addition, ThT (thioflavin T) was dissolved in distilled water to obtain a concentration of 1 mM and subsequently diluted with 50 mM glycin buffer (pH 8.5) to yield a 5 μM ThT stock solution. 45 μL of PBS (phosphate buffer saline, pH 7.4) was added to each of a 96-well fluorescence microplate (white, F-bottom). 5 μL of the 250 μM Aβ42 stock solution was added to each well. The final concentration of each compound obtained in Examples was in a range of 10 to 0.001 μM by adding 2 μL of a solution, which was prepared by dissolving the subject compounds obtained in Examples in DMSO, to each well. At this time, the final concentration of Aβ42 in each well was 25 μM. The plate was then incubated for 1 hr at room temperature, and 150 μL of the 5 μM ThT stock solution was added to each well.
The fluorescence intensity of each well was determined with the multi-label fluorescence counter (LS-55 Luminescence spectrometer: Perkin Elmer) at an excitation wavelength of 450 nm (excitation slit width: 10 nm) and an emission wavelength of 482 nm (emission slit width: 10 nm), while adjusting counting time to 1 second. The control group was prepared by adding PBS solution, Aβ42 and DMSO, without adding the inventive compound prepared above. A percent inhibition on the formation of beta-amyloid fibrils was calculated in accordance with the following equation, and IC50 was calculated by using GraphPad Prism version 4.03 Program.
% Inhibition=[1−(C−D)/(A−B)]×100
A (control group)=fluorescence intensity in a group treated with PBS solution, Aβ42 and DMSO
B (blank)=fluorescence intensity in a group treated with PBS solution and DMSO
C (experimental group)=fluorescence intensity in a group treated with PBS solution, Aβ42, the inventive compound and DMSO
D (compensation value to the experimental group) =fluorescence intensity in a group treated with PBS solution, the inventive compound and DMSO

T1 sequence (P05067 672-713 limits assumed): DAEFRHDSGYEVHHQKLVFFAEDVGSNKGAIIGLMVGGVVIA

| Compound | Aβ42 % inhibition compared with comparative compound curcumin |
| --- | --- |
| COc1ccc2cc(/C=C/c3ccc(N(C)CCF)cc3)oc2c1 [Example 20, (E)-6-(methoxy)-2-(4,4′-methyl(2-fluoroethyl)aminostyryl)benzofuran] | equal to or greater than that of the comparative compound, curcumin |
| CN(C)c1ccc(/C=C/c2cc3ccc(OCCCN4CCOCC4)cc3o2)cc1.Cl [Example 25, (E)-6-(3-(4-morpholinopropoxy))-2-(4-dimethylaminostyryl)benzofuran hydrochloride] | equal to or greater than that of the comparative compound, curcumin |

same assay, conditions: 10 μM compound; 25 μM Aβ42; ThT fluorescence

| Compound | inhibition at 10 µM [%] | % Inhibition (10 μM) |
| --- | --- | --- |
| COc1cc(/C=C/C(=O)CC(=O)/C=C/c2ccc(O)c(OC)c2)ccc1O [Curcumin, curcumin, reference compound] | ≥ 70 | – |
| CN(C)c1ccc(/C=C/c2cc3ccc(OCCCN4CCCCC4)cc3o2)cc1 [Example 11, (E)-6-(3-(1-piperidinyl)propoxy)-2-(4-dimethylaminostyryl)benzofuran] | < 50 | – |
| CN(C)c1ccc(/C=C/c2cc3ccc(OCCCc4ccncc4)cc3o2)cc1 [Example 17, (E)-6-(3-(4-pyridinyl)propoxy)-2-(4-dimethylaminostyryl)benzofuran] | < 50 | – |
| COc1ccc2cc(/C=C/c3ccc(N(C)CCF)cc3)oc2c1 [Example 20, (E)-6-(methoxy)-2-(4,4′-methyl(2-fluoroethyl)aminostyryl)benzofuran] | ≥ 70 | – |
| CN(C)c1ccc(/C=C/c2cc3ccc(OCCN4CCOC4)cc3o2)cc1 [Example 21, (E)-6-(2-(3-oxazolidinyl)ethoxy)-2-(4-dimethylaminostyryl)benzofuran hydrochloride] | 50 to 70 | – |
| CCN(CC)CCCOc1ccc2cc(/C=C/c3ccc(N(C)C)cc3)oc2c1 [Example 24, (E)-6-(3-diethylaminopropoxy)-2-(4-dimethylaminostyryl)benzofuran hydrochloride] | 50 to 70 | – |
| CN(C)c1ccc(/C=C/c2cc3ccc(OCCCN4CCOCC4)cc3o2)cc1.Cl [Example 25, (E)-6-(3-(4-morpholinopropoxy))-2-(4-dimethylaminostyryl)benzofuran hydrochloride] | – | *** (*** (70%≦)) |
| CN(C)c1ccc(/C=C/c2cc3ccc(OCCN4CCOCC4)cc3o2)cc1.Cl [Example 27, (E)-6-(2-(4-morpholinoethoxy))-2-(4-dimethylaminostyryl)benzofuran hydrochloride] | – | ** (** (50% ≦ × < 70%)) |
| C[C@@H]1CN(CCCOc2ccc3cc(/C=C/c4ccc(N(C)C)cc4)oc3c2)C[C@H](C)O1 [Example 28, (E)-6-(3-((2S,6R)-2,6-dimethylmorpholino)propoxy)-2-(4-dimethylaminostyryl)benzofuran hydrochloride] | < 50 | – |
| CN(C)c1ccc(/C=C/c2cc3ccc(OCCN4CCCCC4)cc3o2)cc1.Cl [Example 29] | – | * (* (<50%)) |
| CN(C)c1ccc(/C=C/c2cc3ccc(OCC4CCCCN4C)cc3o2)cc1 (stereo not drawn) [Example 31, (E)-6-(1-methyl-2-piperidinylmethoxy)-2-(4-dimethylaminostyryl)benzofuran hydrochloride] | < 50 | – |
| CN1CCCC(COc2ccc3cc(/C=C/c4ccc(N(C)C)cc4)oc3c2)C1 (stereo not drawn) [Example 32, (E)-6-(1-methyl-3-piperidinylmethoxy)-2-(4-dimethylaminostyryl)benzofuran hydrochloride] | < 50 | – |
| CN1CCN(CCCOc2ccc3cc(/C=C/c4ccc(N(C)C)cc4)oc3c2)CC1 [Example 33, (E)-6-(3-(4-methyl-1-piperazinyl)propoxy)-2-(4-dimethylaminostyryl)benzofuran hydrochloride] | < 50 | – |
| CN(C)c1ccc(/C=C/c2cc3ccc(OCCCN4CCSCC4)cc3o2)cc1.Cl [Example 34, (E)-6-(3-(4-thiomorpholinopropoxy))-2-(4-dimethylaminostyryl)benzofuran hydrochloride] | – | * (* (<50%)) |
| CN(C)c1ccc(/C=C/c2cc3ccc(OCCCN4CCS(=O)(=O)CC4)cc3o2)cc1.Cl [Example 35, (E)-6-(3-(thiomorpholine-1,1-dioxide)propoxy)-2-(4-dimethylaminostyryl)benzofuran hydrochloride] | – | * (* (<50%)) |
| CN(C)c1ccc(/C=C/c2cc3ccc(OCCCc4ccccn4)cc3o2)cc1 [Example 37, (E)-6-(3-(2-pyridinyl)propoxy)-2-(4-dimethylaminostyryl)benzofuran hydrochloride] | < 50 | – |
